# PMC13347698 (Analytical Chemistry, 2026)
# Values joined by “and” are separate entries in the source; they are usually repeats but may differ in a detail not shown here. Equal entries are not always repeated.
# Key:
# [1] = biological target: T1, native SARS-CoV-2 3CL^pro (Severe acute respiratory syndrome coronavirus 2, UniProt P0DTD1); assay: biochemical; type: biochemical
# [2] = biological target: T1, native SARS-CoV-2 3CL^pro; type: biochemical
# [3] = tested on: SARS-CoV 3CL^pro; details: cited from earlier work
# [4] = biological target: wild-type 3CL^pro (Severe acute respiratory syndrome coronavirus 2, UniProt P0DTD1); assay: biochemical; type: binding, SARS-CoV-2; details: K D (wt)
# [5] = tested on: SARS-CoV-2 3CL^pro; details: cited from earlier work
Compound,inhibition mode [1],α parameter [1],binding kinetics (fast or slow-binding) [2],covalent or noncovalent inhibition [2],reduction of reaction rate vi with respect to v0 [2],reduction of thermal power minimum with respect to the noninhibited reaction [2],tight or nontight binding [2],IC50 [3] [µM],Ki [1] [µM],Kd [4],IC50 [5]
CC(C)(C)c1ccc(N(C(=O)c2c[nH]cn2)[C@@H](C(=O)NC2CCCCC2)c2cccnc2)cc1 [X77],predominantly competitive,16 ± 3,fast,noncovalent,ca. 70%,ca. 40%,nontight,3.4,–,–,–
O=C(Nc1ccc(N(Cc2ccsc2)C(=O)Cn2nnc3ccccc32)cc1)C1CC1 [ML300],–,–,–,–,–,–,–,–,6.2 ± 0.4,7.5 µM and 3.6 µM,low micromolar range
